Laboratory results from patent publication US20240000075A1, “FUNGICIDAL ARYL AMIDINES” (CORTEVA AGRISCIENCE LLC, priority 2020, published 2024).
Like-named read-outs stand apart in the source and are kept apart here.

Assays:
Phakopsora pachyrhizi = test: Asian soybean rust, whole-plant fungicidal activity (PHAKPA); format: in vivo; settings: read-out: % Disease Control Rating PHAKPA
Procedure: Example C: Evaluation of Fungicidal Activity: Asian Soybean Rust (Phakopsora pachyrhizi; Bayer Code […]) Technical grades of materials were dissolved in acetone, which were then mixed with nine volumes of H2O containing 0.011% Tween-20. The fungicide solutions were applied onto soybean seedlings using an automated booth sprayer to run-off. All sprayed plants were allowed to air dry prior to further handling. Soybean plants (variety 'Williams 82') were grown in soil-less potting mix, with one plant per pot. Ten-day-old seedlings were used for testing. Plants were inoculated as described in Example A. Plants were incubated for 24 h in a dark dew room with 100% relative humidity then transferred to a growth room for disease to develop. Fungicide formulation and application were made as described in Example A. When disease symptoms were fully expressed, disease severity was assessed on the sprayed leaves on a scale of 0 to 100 percent. Percent disease control was calculated using the ratio of disease severity on treated plants relative to untreated plants.

Rhynchosporium commune = test: Leaf blotch of barley, whole-plant fungicidal activity (RHYNSE); format: in vivo; settings: 24 h, 1DP (1 day protectant), read-out: % Disease Control Rating RHYNSE
Procedure: Technical grades of materials were dissolved in acetone, which were then mixed with nine volumes of water (H2O) containing 110 ppm Triton X-100. The fungicide solutions were applied onto wheat seedlings using an automated booth sprayer to run-off. All sprayed plants were allowed to air dry prior to further handling. All fungicides were evaluated using the aforementioned method for their activity vs. all target diseases, unless stated otherwise. Example D: Evaluation of Fungicidal Activity: Leaf Blotch of Barley (Rhynchosporium commune; Bayer Code […]) Barley plants (variety 'Harrington') were grown from seed in a greenhouse in soil-less potting mix until the first leaf was fully emerged, with 7-10 seedlings per pot. These plants were inoculated with an aqueous spore suspension of Rhynchosporium commune after fungicide treatments. After inoculation, the plants were kept in a dark dew room with 100% relative humidity for two days to permit spores to germinate and infect the leaf. The plants were then transferred to a greenhouse for disease to develop. Fungicide formulation and application were made as described in Example A. Disease assessment was conducted as described in Example A.

Puccinia triticina = test: Wheat brown rust, whole-plant fungicidal activity (PUCCRT); format: in vivo, Puccinia triticina on wheat plants (variety 'Yuma'); settings: 24 h, 1DP (1 day protectant), read-out: % Disease Control Rating PUCCRT
Procedure: Technical grades of materials were dissolved in acetone, which were then mixed with nine volumes of water (H2O) containing 110 ppm Triton X-100. The fungicide solutions were applied onto wheat seedlings using an automated booth sprayer to run-off. All sprayed plants were allowed to air dry prior to further handling. All fungicides were evaluated using the aforementioned method for their activity vs. all target diseases, unless stated otherwise.
Example B: Evaluation of Fungicidal Activity: Wheat Brown Rust (Puccinia triticina; Synonym: Puccinia recondita f sp. tritici; Bayer Code PUCCRT)
Wheat plants (variety ‘Yuma’) were grown from seed in a greenhouse in soil-less potting mix until the first leaf was fully emerged, with 7-10 seedlings per pot. These plants were inoculated with an aqueous spore suspension of Puccinia triticina after fungicide treatments. After inoculation, the plants were kept in a dark dew room with 100% relative humidity overnight to permit spores to germinate and infect the leaf. The plants were then transferred to a greenhouse for disease to develop. Fungicide formulation, application and disease assessment followed the procedures as described in Example A.

Zymoseptoria tritici = test: Septoria leaf blotch of wheat, whole-plant fungicidal activity (SEPTTR); format: in vivo, Zymoseptoria tritici on wheat plants (variety 'Yuma'); settings: read-out: % Disease Control Rating SEPTTR
Procedure: Example A: Evaluation of Fungicidal Activity: Septoria Leaf Blotch of Wheat (Zymoseptoria tritici; Bayer Code […]) Technical grades of materials were dissolved in acetone, which were then mixed with nine volumes of water (H2O) containing 110 ppm Triton X-100. The fungicide solutions were applied onto wheat seedlings using an automated booth sprayer to run-off. All sprayed plants were allowed to air dry prior to further handling. All fungicides were evaluated using the aforementioned method for their activity vs. all target diseases, unless stated otherwise. Wheat plants (variety 'Yuma') were grown from seed in a greenhouse in soil-less potting mix until the first leaf was fully emerged, with 7-10 seedlings per pot. These plants were inoculated with an aqueous spore suspension of Zymoseptoria tritici either 3 days prior to fungicide treatment (3 day curative; 3DC) or 1 day after fungicide treatment (1 day protectant; 1DP). After inoculation the plants were kept in 100% relative humidity for three days to permit spores to germinate and infect the leaf. The plants were then transferred to a greenhouse for disease to develop. When disease symptoms were fully expressed on the 1st leaves of untreated plants, infection levels were assessed on a scale of 0 to 100 percent disease severity. Percent disease control was calculated using the ratio of disease severity on treated plants relative to untreated plants.

SMILES	pest or weed control at 200 ppm (Phakopsora pachyrhizi; 24 h, 1DP (1 day protectant)) [%]	pest or weed control at 200 ppm (Phakopsora pachyrhizi; 72 h, 3DC (3 day curative)) [%]	pest or weed control at 200 ppm (Rhynchosporium commune) [%]	pest or weed control at 200 ppm (Puccinia triticina) [%]	pest or weed control at 200 ppm (Zymoseptoria tritici; 24 h, 1DP (1 day protectant)) [%]	pest or weed control at 200 ppm (Zymoseptoria tritici; 72 h, 3DC (3 day curative)) [%]
Cc1cc(C(=O)CC2CCCCC2)c(C)cc1/N=C/N(C)C [Compound 57]	> 85	> 85	< 20	> 85	50 to 85	< 20
CCN(/C=N/c1cc(C)c(C(=O)CC2CCCCC2)cc1C)CC [Compound 58]	> 85	> 85	< 20	> 85	50 to 85	< 20
Cc1cc(C(=O)CC2CCCCC2)c(C)cc1/N=C/N(C)C(C)C [Compound 59]	> 85	> 85	> 85	> 85	> 85	> 85
Cc1cc(C(=O)CC2CCCCC2)c(C)cc1/N=C/N(C)C1CC1 [Compound 60]	< 20	< 20	< 20	> 85	< 20	< 20
CCN(C)/C(S)=N/c1cc(C)c(C(=O)CC2CCCCC2)cc1C [Compound 61]	> 85	> 85	> 85	> 85	> 85	< 20
CCN(C)/C=N/c1cc(C)c(C(=O)Cc2ccc(C)cc2C)cc1C [Compound 62]	> 85	20 to 50	> 85	> 85	> 85	50 to 85
CCN(C)/C=N/c1cc(C)c(C(=O)Cc2ccc(C(F)(F)F)cc2)cc1C [Compound 63]	> 85	> 85	> 85	> 85	> 85	20 to 50
CCCc1ccc(CC(=O)c2cc(C)c(/N=C/N(C)CC)cc2C)cc1 [Compound 64]	> 85	> 85	> 85	> 85	50 to 85	< 20
CCN(C)/C=N/c1cc(C)c(C(=O)Cc2ccc(SC(F)(F)F)cc2)cc1C [Compound 65]	> 85	> 85	> 85	> 85	> 85	20 to 50
CCN(C)/C=N/c1cc(C)c(C(=O)Cc2ccc(C(C)C)cc2)cc1C [Compound 66]	> 85	> 85	> 85	> 85	> 85	< 20
CCN(C)/C=N/c1cc(C)c(C(=O)Cc2ccc(C(C)(C)C)cc2)cc1C [Compound 67]	> 85	> 85	> 85	> 85	> 85	< 20
CCN(C)/C=N/c1cc(C)c(C(=O)Cc2ccc(F)cc2)cc1C [Compound 68]	> 85	> 85	> 85	> 85	> 85	< 20
CCN(C)/C=N/c1cc(C)c(C(=O)Cc2ccc(Cl)cc2)cc1C [Compound 69]	> 85	> 85	50 to 85	> 85	50 to 85	50 to 85
CCc1cccc(CC(=O)c2cc(C)c(/N=C/N(C)CC)cc2C)c1 [Compound 70]	> 85	> 85	> 85	> 85	50 to 85	< 20
CCN(C)/C=N/c1cc(C)c(C(=O)Cc2ccc3c(c2)CCC3)cc1C [Compound 71]	> 85	> 85	> 85	> 85	20 to 50	< 20
CCN(C)/C=N/c1cc(OC)c(C(=O)CC2CCCCC2)cc1C [Compound 72]	> 85	> 85	< 20	> 85	< 20	< 20
Cc1cc(C(=O)CC2CCCC2)c(C)cc1/N=C/N(C)C [Compound 73, (E)-N′-(4-(2-cyclopentylacetyl)-2,5-dimethylphenyl)-N,N-dimethylformimidamide]	> 85	> 85	< 20	> 85	< 20	< 20
CCN(C)/C=N/c1cc(C)c(C(=O)CC2CCCC2)cc1OC [Compound 74]	> 85	> 85	50 to 85	> 85	< 20	< 20
CCN(C)/C=N/c1ccc(C(=O)CC2CCCC2)cc1C [Compound 75]	20 to 50	> 85	< 20	> 85	< 20	< 20
Cc1cc(C(=O)Cc2c(F)cc(F)cc2F)c(C)cc1/N=C/N(C)C [Compound 76]	> 85	–	< 20	> 85	< 20	< 20
CCN(/C=N/c1cc(C)c(C(=O)CC2CCCC2)cc1C)CC [Compound 77]	> 85	> 85	20 to 50	> 85	< 20	< 20
CCN(/C=N/c1cc(C)c(C(=O)Cc2c(F)cc(F)cc2F)cc1C)CC [Compound 78]	> 85	> 85	< 20	> 85	< 20	< 20
Cc1cc(C(=O)Cc2c(F)cc(F)cc2F)c(C)cc1/N=C/N(C)C(C)C [Compound 79]	> 85	–	50 to 85	> 85	< 20	< 20
